These results are taken from patent publication US6753348B2, “BTK inhibitors and methods for their identification and use” (Parker Hughes Institute, priority 1998, dated 2004).

Structures are written as SMILES. Some results are limits rather than exact numbers.

The subject of one assay is RBL-2H3 rat mast cells. Nature of the assay: IgE/FcεRI receptor mediated leukotriene C4 release, RBL-2H3 mast cells. The assay is classed as cell-based. To be noted: RBL-2H3, IgE/DNP-BSA challenge, 30 min pre-incubation, 1-100 μM, N = 3-4, read-out: EC50 (mean ± SEM), inhibition of leukotriene C4 release. On the procedure:
Mast Cell Cultures. RBL-2H3 mast cells were a gift from Dr. Reuben P. Siraganian (Laboratory of Microbiology and Immunology, National Institute of Dental Research, National Institute of Health). The cells were maintained as monolayer cultures in 75- or 150-cm^2 flask in Eagle's essential medium supplemented with 20% fetal calf serum. Human fetal livers (16 to 21 weeks of gestational age) were obtained from prostaglandin-induced human abortuses. Subsequently, single cell suspensions were prepared and mononuclear cells were isolated by centrifugation on Ficoll-Hypaque gradients as described (Malaviya, R., et al., (1999) J Biol Chem, 274, 27028-27038). Isolated cells were cultured for 8 weeks in the presence of 100 ng/ml rhSCF, 2 ng/ml rhIL-4 (Malaviya, R., et al., (1999) J Biol Chem, 274, 27028-27038; Xia, H. Z., et al., (1997) J Immunol, 159, 2911-2921). Culture medium was replaced with fresh medium once a week for the first 2 weeks and twice a week thereafter. All human tissue specimens were used following the guidelines of the Parker Hughes Institute Institutional Review Board on the Use of Human Subjects in Research for secondary use of pathologic or surgical tissue. At the end of the 8 weeks the fetal liver derived human mast cell culture contained 70-90 percent mast cells, based on toluidine blue and tryptase staining (Xia, H. Z., et al., (1997) J Immunol, 159, 2911-2921).
Stimulation of Mast Cells. RBL-2H3 rat mast were sensitized with monoclonal anti-DNP IgE antibody (0.24 mg/ml) for 1 h at 37° C. in a 48-well tissue culture plate. Unbound IgE was removed by washing the cells with PIPES-buffered saline. After washing, PIPES-buffered saline containing 1 mM calcium chloride was added to the monolayers of the RBL-2H3 cells. The cells were challenged with 20 ng/ml DNP-BSA for 30 min at 37° C. The plate was centrifuged at 200 g for 10 min at 4° C. Supernatants were removed and saved. Fetal liver-derived human mast cells were resuspended in culture medium at a cell density of 5×10^6/ml and sensitized with human IgE (150 μg/ml) for 3 h at 4° C. After sensitization the cells were washed with tyrode buffer containing 1 mM calcium and 1 mM magnesium and challenged with mouse monoclonal anti-human IgE (40 μg/ml) for 30 min at 37° C. To study the effect of test drugs, RBL-2H3 rat mast cells or human mast cells were incubated with the drugs at the indicated concentrations or vehicle for 30 min prior to antigen challenge.
Mediator Release Assay. Leukotriene C4 levels were estimated in cell free supernatants of mast cells by immunoassay (Malaviya, R. and Abraham, S. N., (1995) Methods Enzymol, 253, 27-43).
Mast cells release large amounts of leukotrienes upon IgE receptor ligation. Because of the reported ability of LFM as a mast cell inhibitor, we utilized 13 analogues of LFM (Table 1) and examined their effect on IgE/FcεERI receptor mediated mast cell leukotriene C4 release. RBL-2H3 cells, a mucosal mast cell line, were treated with 5 different concentrations of the compounds ranging from 1 μM to 100 μM or vehicle for 30 min before challenge with antigen (DNP-BSA) at 37° C. Leukotriene C4 release was quantitated in the extracellular medium employing a previously described ELISA (Malaviya, R. and Abraham, S. N., (1995) Methods Enzymol, 253, 27-43).

For a further assay, the target named is T1, JAK3 (Homo sapiens, UniProt P52333).
T1 sequence (P52333 1-1124): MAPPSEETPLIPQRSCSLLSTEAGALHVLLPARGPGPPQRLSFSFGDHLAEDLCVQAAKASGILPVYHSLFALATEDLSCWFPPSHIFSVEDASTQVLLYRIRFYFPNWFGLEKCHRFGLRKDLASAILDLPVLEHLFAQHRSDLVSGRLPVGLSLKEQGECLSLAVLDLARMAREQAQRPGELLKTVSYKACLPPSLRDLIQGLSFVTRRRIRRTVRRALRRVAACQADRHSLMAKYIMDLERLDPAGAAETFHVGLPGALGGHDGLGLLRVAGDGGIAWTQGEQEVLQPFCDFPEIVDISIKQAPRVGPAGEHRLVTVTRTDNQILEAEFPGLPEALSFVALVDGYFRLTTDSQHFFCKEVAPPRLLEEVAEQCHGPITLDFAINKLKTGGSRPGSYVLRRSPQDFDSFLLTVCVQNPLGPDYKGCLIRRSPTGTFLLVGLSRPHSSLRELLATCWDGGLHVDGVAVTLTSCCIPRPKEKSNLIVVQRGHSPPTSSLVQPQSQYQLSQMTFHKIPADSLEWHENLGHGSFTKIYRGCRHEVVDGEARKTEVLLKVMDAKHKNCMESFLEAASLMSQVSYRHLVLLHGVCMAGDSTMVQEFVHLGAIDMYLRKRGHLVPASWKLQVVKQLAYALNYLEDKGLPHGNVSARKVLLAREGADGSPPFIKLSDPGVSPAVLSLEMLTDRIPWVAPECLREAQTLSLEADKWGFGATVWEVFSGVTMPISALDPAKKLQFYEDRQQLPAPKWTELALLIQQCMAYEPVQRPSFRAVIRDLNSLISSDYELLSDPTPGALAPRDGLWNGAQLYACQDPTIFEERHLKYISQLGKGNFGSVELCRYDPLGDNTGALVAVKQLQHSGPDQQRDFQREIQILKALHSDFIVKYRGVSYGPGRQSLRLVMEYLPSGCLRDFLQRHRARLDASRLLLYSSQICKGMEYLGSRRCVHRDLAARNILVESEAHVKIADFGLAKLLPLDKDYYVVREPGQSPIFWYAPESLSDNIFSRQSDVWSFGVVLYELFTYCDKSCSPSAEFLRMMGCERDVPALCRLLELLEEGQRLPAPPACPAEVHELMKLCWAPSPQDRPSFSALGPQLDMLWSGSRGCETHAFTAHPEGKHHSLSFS
Nature of the assay: Cell-free tyrosine kinase inhibition assay JAK3. The assay is classed as biochemical.

The subject of the next assay is JAK2. Nature of the assay: Tyrosine kinase assay JAK2 as named in text. To be noted: concentrations as high as 100 μg/ml (~278 μM). The assay is classed as biochemical.

For `CC(O)=C(C#N)C(=O)Nc1cccc(C(F)(F)F)c1` [LFM-A8, α-Cyano-β-hydroxy-β-methyl-N-[3-(trifluoromethyl)phenyl]-propenamide], the EC50 (usually the midpoint of the concentration-response curve) with RBL-2H3 rat mast cells was 28 ± 1 µM.

`C/C(O)=C(\C#N)C(=O)Nc1cc(Br)ccc1Br` [LFM-A13, α-Cyano-β-hydroxy-β-methyl-N-(2,5-dibromophenyl)-propenamide]: the IC50 (as a rule, the midpoint of a concentration-inhibition curve) on JAK3 is greater than 278 µM. In addition, at JAK3 (concentrations as high as 100 μg/ml (~278 μM)), the “effect on enzymatic activity of JAK3” value was “did not affect the enzymatic activity”. In addition, the “effect on enzymatic activity of JAK2” value with JAK2 is given as “did not affect the enzymatic activity”.
